Values joined by “and” are separate entries in the source; they are usually repeats but may differ in a detail not shown here. Identical values can stand only once. Inconclusive results and toxic doses are left out.

The results in this text go back to PubChem BioAssay AID248 (DTP/NCI, 2004).

In the assay the test system is L1210 leukemia ip in BDF1 mice, survival T/C. Put plainly: NCI In Vivo Anticancer Drug Screen. Data for tumor model L1210 Leukemia (intraperitoneal) in B6D2F1 (BDF1) mice. The following applies: endpoint: mean survival time, higher = longer survival. The procedure, abridged: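 Transplanted-tumor mice were given test agent; controls received vehicle only. Survival readings from the two groups were divided (treated over control).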

The mark [1] stands for this setting: dose: 100.0 mg/kg/injection, schedule: Q01DX009 (ip), vehicle: Klucel (hydroxypropylcellulose) (HPC).
Setting [2] is: dose: 100.0 mg/kg/injection, schedule: Q04DX003 (ip), vehicle: Klucel (hydroxypropylcellulose) (HPC).
Where [3] appears, read: dose: 200.0 mg/kg/injection, schedule: Q01DX009 (ip), vehicle: Klucel (hydroxypropylcellulose) (HPC).
Setting [4] is: dose: 200.0 mg/kg/injection, schedule: Q04DX003 (ip), vehicle: Klucel (hydroxypropylcellulose) (HPC).
[5] abbreviates: dose: 400.0 mg/kg/injection, schedule: Q01DX009 (ip), vehicle: Klucel (hydroxypropylcellulose) (HPC).
Where [6] appears, read: dose: 400.0 mg/kg/injection, schedule: Q04DX003 (ip), vehicle: Klucel (hydroxypropylcellulose) (HPC).
Setting [7] is: dose: 100.0 mg/kg/injection, schedule: Q04DX002 (ip), vehicle: Klucel (hydroxypropylcellulose) (HPC).
The mark [8] stands for this setting: dose: 200.0 mg/kg/injection, schedule: Q04DX002 (ip), vehicle: Klucel (hydroxypropylcellulose) (HPC).
The mark [9] stands for this setting: dose: 400.0 mg/kg/injection, schedule: Q04DX002 (ip), vehicle: Klucel (hydroxypropylcellulose) (HPC).
The mark [10] stands for this setting: dose: 100.0 mg/kg/injection, schedule: Q04DX003 (ip), vehicle: saline.
[11] abbreviates: dose: 200.0 mg/kg/injection, schedule: Q04DX003 (ip), vehicle: saline.
Where [12] appears, read: dose: 50.0 mg/kg/injection, schedule: Q01DX001 (ip), vehicle: carboxymethylcellulose (CMC).
Setting [13] is: dose: 100.0 mg/kg/injection, schedule: Q01DX001 (ip), vehicle: carboxymethylcellulose (CMC).
Setting [14] is: dose: 200.0 mg/kg/injection, schedule: Q01DX001 (ip), vehicle: carboxymethylcellulose (CMC).
Setting [15] is: dose: 400.0 mg/kg/injection, schedule: Q01DX001 (ip), vehicle: carboxymethylcellulose (CMC).

Consider `O=C(Nc1ccc(C2=NCCN2)cc1)c1cncc(C(=O)Nc2ccc(C3=NCCN3)cc2)c1`, for which the T/C is, setting by setting: (dose: 1.0 mg/kg/injection, schedule: Q01DX Z (ip), vehicle: saline) 97 % of control; (dose: 2.0 mg/kg/injection, schedule: Q01DX Z (ip), vehicle: saline) 111 % of control; (dose: 15.0 mg/kg/injection, schedule: Q01DX Z (ip), vehicle: carboxymethylcellulose (CMC)) 223 % of control; (dose: 16.0 mg/kg/injection, schedule: Q01DX Z (ip), vehicle: saline) 214 % of control; (dose: 30.0 mg/kg/injection, schedule: Q01DX Z (ip), vehicle: carboxymethylcellulose (CMC)) 158 % of control; (dose: 30.0 mg/kg/injection, schedule: Q01DX Z (oral), vehicle: saline) 101 % of control. Besides, the T/C is, setting by setting: (dose: 60.0 mg/kg/injection, schedule: Q01DX Z (ip), vehicle: carboxymethylcellulose (CMC)) 120 % of control; (dose: 60.0 mg/kg/injection, schedule: Q01DX Z (oral), vehicle: saline) 104 % of control; (dose: 120.0 mg/kg/injection, schedule: Q01DX Z (oral), vehicle: saline) 98 % of control; (dose: 240.0 mg/kg/injection, schedule: Q01DX Z (oral), vehicle: saline) 106 % of control; (dose: 480.0 mg/kg/injection, schedule: Q01DX Z (oral), vehicle: saline) 101 % of control; (dose: 960.0 mg/kg/injection, schedule: Q01DX Z (oral), vehicle: saline) 101 % of control.
Turning to `O=C(NC1CCC(CC2CCCCC2)CC1)C(Cl)Cl` (configuration not stated), the T/C runs as follows: under setting [1], 91 % of control; under setting [2], 93 % of control; under setting [3], 93 % of control; under setting [4], 88 % of control; under setting [5], 91 % of control; under setting [6], 109 % of control.
Consider `O=C(Nc1ccccc1)OCCc1ccc([N+](=O)[O-])cc1`, for which the T/C is 100 % of control under setting [2], 98 % of control under setting [4] and 102 % of control under setting [6].
Consider `CCS(=O)c1c(Cl)c(Cl)c(Cl)c(Cl)c1Cl` (configuration not stated), for which the T/C under setting [1] was 102 % of control, the T/C under setting [3] was 108 % of control and the T/C under setting [5] was 95 % of control.
For the compound `CCOC(=O)c1c(-c2ccc([N+](=O)[O-])cc2)cn(-c2ccc(OC)cc2)c1C`, the T/C was 91 % of control under setting [7], 87 % of control under setting [8] and 94 % of control under setting [9].
On to `NC(CSCCc1ccccn1)C(=O)O` (configuration not stated), for which the T/C by setting is: (dose: 100.0 mg/kg/injection, schedule: Q01DX009 (ip), vehicle: saline) 107 % of control; under setting [10], 101 % of control; (dose: 200.0 mg/kg/injection, schedule: Q01DX009 (ip), vehicle: saline) 104 % of control; under setting [11], 104 % of control; (dose: 400.0 mg/kg/injection, schedule: Q01DX009 (ip), vehicle: saline) 105 % of control; (dose: 400.0 mg/kg/injection, schedule: Q04DX003 (ip), vehicle: saline) 94 % of control.
With `O=C(O)C(=O)Cc1ccc(O)cc1`, the T/C runs as follows: under setting [12], 105 % of control; under setting [13], 96 % of control; under setting [14], 91 % of control; under setting [15], 100 % of control.
As to `CN=C(c1ccc(NC(=O)c2ccc(C(=O)Nc3ccc(C(=NC)N4CCCC4)cc3)cc2)cc1)N1CCCC1`, the T/C is 96 % of control (dose: 0.5 mg/kg/injection, schedule: Q01DX Z (ip), vehicle: water) and 96 % of control (dose: 1.0 mg/kg/injection, schedule: Q01DX Z (ip), vehicle: water).
As to `COC(=O)c1cc(NC(=O)Nc2cc(C(F)(F)F)ccc2Cl)cc(C(=O)OC)c1`, the T/C is 112 % of control under setting [7], 105 % of control under setting [8] and 105 % of control under setting [9].
As to `O=S(=O)(O)c1ccc(-c2ccccc2)cc1`, the T/C (dose: 50.0 mg/kg/injection, schedule: Q01DX009 (ip), vehicle: Klucel (hydroxypropylcellulose) (HPC)) is 106 % of control; the T/C under setting [1] is 94 % of control; the T/C under setting [2] is 89 % of control; the T/C under setting [4] is 94 % of control.
With `COc1ccccc1OC(=O)c1ccccc1OC(=O)c1cccnc1`, the T/C runs as follows: (dose: 100.0 mg/kg/injection, schedule: Q04DX002 (ip), vehicle: saline with Tween-80) 101 % of control; (dose: 200.0 mg/kg/injection, schedule: Q04DX002 (ip), vehicle: saline with Tween-80) 96 % of control; (dose: 400.0 mg/kg/injection, schedule: Q04DX002 (ip), vehicle: saline with Tween-80) 89 % of control.
For `NC(=O)c1ccc(N)nc1`, the T/C (dose: 22.0 mg/kg/injection, schedule: Q01DX001 (ip), vehicle: carboxymethylcellulose (CMC)) is 104 % of control and 106 % of control; the T/C (dose: 25.0 mg/kg/injection, schedule: Q01DX001 (ip), vehicle: carboxymethylcellulose (CMC)) is 106 % of control; the T/C (dose: 33.0 mg/kg/injection, schedule: Q01DX001 (ip), vehicle: carboxymethylcellulose (CMC)) is 109 % of control and 114 % of control; the T/C under setting [12] was 111 % of control and 112 % of control; the T/C (dose: 75.0 mg/kg/injection, schedule: Q01DX001 (ip), vehicle: carboxymethylcellulose (CMC)) was 109 % of control and 90 % of control; the T/C under setting [13] is 95 % of control.
For `Cc1ccc(S(=O)(=O)N(CCCc2c(N)nc(N)nc2-c2ccccc2)c2ccccc2)cc1`, the T/C is, setting by setting: under setting [10], 100 % of control; under setting [11], 97 % of control.
As for `O=[N+]([O-])c1ccc(OCc2ccc(S(=O)(=O)Oc3cccnc3)cc2)c(Cl)c1`, the T/C reads like this: (dose: 100.0 mg/kg/injection, schedule: Q01DX001 (ip), vehicle: Klucel (hydroxypropylcellulose) (HPC)) 94 % of control; (dose: 200.0 mg/kg/injection, schedule: Q01DX001 (ip), vehicle: Klucel (hydroxypropylcellulose) (HPC)) 98 % of control; (dose: 400.0 mg/kg/injection, schedule: Q01DX001 (ip), vehicle: Klucel (hydroxypropylcellulose) (HPC)) 89 % of control.
With `O=C1c2sccc2-c2cccc3cccc1c23` (tested in a mixture with another compound), the T/C is, setting by setting: under setting [2], 96 % of control; under setting [4], 102 % of control; under setting [6], 106 % of control.
For the compound `Cc1ccc(N=NN(C)N=Nc2ccc(C)cc2)cc1`, the T/C was 98 % of control (dose: 50.0 mg/kg/injection, schedule: Q01DX001 (ip), vehicle: saline); 95 % of control (dose: 100.0 mg/kg/injection, schedule: Q01DX001 (ip), vehicle: saline); 95 % of control (dose: 200.0 mg/kg/injection, schedule: Q01DX001 (ip), vehicle: saline); 93 % of control (dose: 400.0 mg/kg/injection, schedule: Q01DX001 (ip), vehicle: saline).
Regarding `Cc1cc([N+](=O)[O-])c(Cl)c([N+](=O)[O-])c1`, the T/C under setting [13] is 91 % of control, the T/C under setting [14] was 89 % of control and the T/C under setting [15] was 100 % of control.
With `Cc1ccc(CCO)c(C)c1`, the T/C by setting is: under setting [1], 92 % of control; under setting [2], 92 % of control; under setting [3], 94 % of control; under setting [4], 92 % of control; under setting [5], 90 % of control; under setting [6], 103 % of control.
With `O=C(NC(=S)Nc1ccc(F)cc1)c1ccccc1F`, the T/C was 104 % of control (dose: 25.0 mg/kg/injection, schedule: Q01DX009 (ip), vehicle: gum acacia); 107 % of control (dose: 50.0 mg/kg/injection, schedule: Q01DX009 (ip), vehicle: gum acacia); 96 % of control and 105 % of control (dose: 100.0 mg/kg/injection, schedule: Q01DX009 (ip), vehicle: gum acacia).
On to `COc1ccc(CN(C)N=Nc2ccc(C#N)cc2)cc1`, for which the T/C reads like this: (dose: 100.0 mg/kg/injection, schedule: Q01DX009 (ip), vehicle: saline with Tween-80) 98 % of control; (dose: 200.0 mg/kg/injection, schedule: Q01DX009 (ip), vehicle: saline with Tween-80) 119 % of control; (dose: 400.0 mg/kg/injection, schedule: Q01DX009 (ip), vehicle: saline with Tween-80) 124 % of control.
